In the supplement of paper PMC10307832:

Assays:
Assay in all cases: relative viability (nuclei count vs DMSO), 5 days (fraction); higher = more cells survive
NCI-H1792 = tested on: NCI-H1792
Procedure, shortened: (§1)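 Five library-drug doses in √10 steps were combined with a fixed anchor-drug dose, or a single drug was given alone, by pin tool to lung cancer cell lines in 1536-well plates the day after seeding. Nuclei were stained and counted after 5 days. Relative viability is the nuclei count in treated wells over that in vehicle wells, taken as the median of duplicate plates.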

NCI-H1993 = tested on: NCI-H1993
Procedure, shortened: as §1

HCC-15 = tested on: HCC-15
Procedure, shortened: as §1

NCI-H838 = tested on: NCI-H838
Procedure, shortened: as §1

NCI-H358 = tested on: NCI-H358
Procedure, shortened: as §1

COR-L23 = tested on: COR-L23
Procedure, shortened: as §1

NCI-H647 = tested on: NCI-H647
Procedure, shortened: as §1

NCI-H1395 = tested on: NCI-H1395
Procedure, shortened: as §1

NCI-H1734 = tested on: NCI-H1734
Procedure, shortened: as §1

NCI-H2009 = tested on: NCI-H2009
Procedure, shortened: as §1

NCI-H1755 = tested on: NCI-H1755
Procedure, shortened: as §1

**Q.** `COc1cc2nccc(Oc3ccc(NC(=O)Nc4cc(C)on4)c(Cl)c3)c2cc1OC` [Tivozanib] + Cc1nc(Nc2ncc(C(=O)Nc3c(C)cccc3Cl)s2)cc(N2CCN(CCO)CC2)n1 [Dasatinib] (partner 0.075 µM) was tested. Which relative viability (NCI-H1792; first compound 0.005 µM) did it give?
**A.** Its relative viability is 0.77.

**Q.** What about the relative viability (NCI-H1792; first compound 0.01581 µM) of the same compound?
**A.** The relative viability was 0.819.

**Q.** And the relative viability (NCI-H1792; first compound 0.05 µM)?
**A.** Its relative viability is 0.815.

**Q.** What about the relative viability (NCI-H1792; first compound 0.1581 µM) of the same compound?
**A.** The relative viability was 0.843.

**Q.** And the relative viability (NCI-H1792; first compound 0.5 µM)?
**A.** The relative viability was 0.848.

**Q.** What about the relative viability (NCI-H1993; first compound 0.005 µM) of the same compound?
**A.** The relative viability was 0.609.

**Q.** And the relative viability (NCI-H1993; first compound 0.01581 µM)?
**A.** Its relative viability is 0.605.

**Q.** What about the relative viability (NCI-H1993; first compound 0.05 µM) of the same compound?
**A.** The relative viability was 0.692.

**Q.** And the relative viability (NCI-H1993; first compound 0.1581 µM)?
**A.** Its relative viability is 0.496.

**Q.** What about the relative viability (NCI-H1993; first compound 0.5 µM) of the same compound?
**A.** Its relative viability is 0.504.

**Q.** And the relative viability (HCC-15; first compound 0.005 µM)?
**A.** The relative viability was 0.534.

**Q.** And the relative viability (HCC-15; first compound 0.01581 µM)?
**A.** Its relative viability is 0.579.

**Q.** What about the relative viability (HCC-15; first compound 0.05 µM) of the same compound?
**A.** Its relative viability is 0.621.

**Q.** What about the relative viability (HCC-15; first compound 0.1581 µM) of the same compound?
**A.** Its relative viability is 0.67.

**Q.** What about the relative viability (HCC-15; first compound 0.5 µM) of the same compound?
**A.** Its relative viability is 0.607.

**Q.** And the relative viability (NCI-H838; first compound 0.005 µM)?
**A.** The relative viability was 0.212.

**Q.** What about the relative viability (NCI-H838; first compound 0.01581 µM) of the same compound?
**A.** The relative viability was 0.31.

**Q.** What about the relative viability (NCI-H838; first compound 0.05 µM) of the same compound?
**A.** Its relative viability is 0.292.

**Q.** What about the relative viability (NCI-H838; first compound 0.1581 µM) of the same compound?
**A.** The relative viability was 0.307.

**Q.** What about the relative viability (NCI-H838; first compound 0.5 µM) of the same compound?
**A.** Its relative viability is 0.295.

**Q.** What about the relative viability (NCI-H358; first compound 0.005 µM) of the same compound?
**A.** Its relative viability is 0.136.

**Q.** And the relative viability (NCI-H358; first compound 0.01581 µM)?
**A.** The relative viability was 0.165.

**Q.** And the relative viability (NCI-H358; first compound 0.05 µM)?
**A.** The relative viability was 0.174.

**Q.** What about the relative viability (NCI-H358; first compound 0.1581 µM) of the same compound?
**A.** Its relative viability is 0.141.

**Q.** And the relative viability (NCI-H358; first compound 0.5 µM)?
**A.** Its relative viability is 0.184.

**Q.** What about the relative viability (COR-L23; first compound 0.005 µM) of the same compound?
**A.** The relative viability was 0.484.

**Q.** What about the relative viability (COR-L23; first compound 0.01581 µM) of the same compound?
**A.** Its relative viability is 0.515.

**Q.** And the relative viability (COR-L23; first compound 0.05 µM)?
**A.** Its relative viability is 0.462.

**Q.** And the relative viability (COR-L23; first compound 0.1581 µM)?
**A.** Its relative viability is 0.485.

**Q.** What about the relative viability (COR-L23; first compound 0.5 µM) of the same compound?
**A.** Its relative viability is 0.452.

**Q.** What about the relative viability (NCI-H647; first compound 0.005 µM) of the same compound?
**A.** Its relative viability is 0.152.

**Q.** What about the relative viability (NCI-H647; first compound 0.01581 µM) of the same compound?
**A.** Its relative viability is 0.227.

**Q.** What about the relative viability (NCI-H647; first compound 0.05 µM) of the same compound?
**A.** Its relative viability is 0.189.

**Q.** And the relative viability (NCI-H647; first compound 0.1581 µM)?
**A.** Its relative viability is 0.193.

**Q.** And the relative viability (NCI-H647; first compound 0.5 µM)?
**A.** The relative viability was 0.15.

**Q.** And the relative viability (NCI-H1395; first compound 0.005 µM)?
**A.** Its relative viability is 0.376.

**Q.** What about the relative viability (NCI-H1395; first compound 0.01581 µM) of the same compound?
**A.** The relative viability was 0.407.

**Q.** What about the relative viability (NCI-H1395; first compound 0.05 µM) of the same compound?
**A.** The relative viability was 0.404.

**Q.** And the relative viability (NCI-H1395; first compound 0.1581 µM)?
**A.** The relative viability was 0.386.

**Q.** And the relative viability (NCI-H1395; first compound 0.5 µM)?
**A.** The relative viability was 0.371.

**Q.** What about the relative viability (NCI-H1734; first compound 0.005 µM) of the same compound?
**A.** The relative viability was 0.424.

**Q.** And the relative viability (NCI-H1734; first compound 0.01581 µM)?
**A.** Its relative viability is 0.536.

**Q.** And the relative viability (NCI-H1734; first compound 0.05 µM)?
**A.** Its relative viability is 0.51.

**Q.** What about the relative viability (NCI-H1734; first compound 0.1581 µM) of the same compound?
**A.** The relative viability was 0.366.

**Q.** What about the relative viability (NCI-H1734; first compound 0.5 µM) of the same compound?
**A.** Its relative viability is 0.425.

**Q.** And the relative viability (NCI-H2009; first compound 0.005 µM)?
**A.** The relative viability was 0.31.

**Q.** What about the relative viability (NCI-H2009; first compound 0.01581 µM) of the same compound?
**A.** The relative viability was 0.299.

**Q.** And the relative viability (NCI-H2009; first compound 0.05 µM)?
**A.** Its relative viability is 0.333.

**Q.** What about the relative viability (NCI-H2009; first compound 0.1581 µM) of the same compound?
**A.** The relative viability was 0.262.

**Q.** And the relative viability (NCI-H2009; first compound 0.5 µM)?
**A.** Its relative viability is 0.22.

**Q.** And the relative viability (NCI-H1755; first compound 0.005 µM)?
**A.** Its relative viability is 0.356.

**Q.** And the relative viability (NCI-H1755; first compound 0.01581 µM)?
**A.** Its relative viability is 0.415.

**Q.** What about the relative viability (NCI-H1755; first compound 0.05 µM) of the same compound?
**A.** Its relative viability is 0.432.
